Columns and labels:
rat MC3-R = rat MC3-R (Rattus norvegicus, UniProt P32244); assay: Intracellular cAMP production in recombinant MC3-R expressing human 293 cells; type: cell-based
Experimental: This property of cells expressing melanocortin receptors was used to analyze expression of MC3-R in cells transfected with the expression vectors described herein as follows.
Following hormone treatment, the cells were washed twice with phosphate buffered saline and intracellular cAMP extracted by lysing the cells with 1 ml of 60% ethanol.

pigmentation = settings: Ling et al. 1979; Slominski et al. 1992; cited from earlier work
[1] = tested on: central nervous system and renal afferent nerve; settings: Gruber & Callahan 1989; Klein et al. 1985; Lin et al. 1987; cited from earlier work

rat MC3-R, sequence (P32244 whole entry): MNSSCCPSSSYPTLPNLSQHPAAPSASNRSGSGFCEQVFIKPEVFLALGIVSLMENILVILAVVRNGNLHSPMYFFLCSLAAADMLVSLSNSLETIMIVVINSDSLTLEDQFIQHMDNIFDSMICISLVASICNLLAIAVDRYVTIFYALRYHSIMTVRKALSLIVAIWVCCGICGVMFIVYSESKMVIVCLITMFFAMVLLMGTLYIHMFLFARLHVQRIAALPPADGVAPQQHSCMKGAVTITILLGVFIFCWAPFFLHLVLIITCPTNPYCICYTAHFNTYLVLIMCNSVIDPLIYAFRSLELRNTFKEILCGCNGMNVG

SMILES: CSCC[C@H](NC(=O)[C@@H](NC(=O)[C@@H](N)Cc1ccc(O)cc1)C(C)C)C(=O)NCC(=O)N[C@@H](Cc1c[nH]cn1)C(=O)N[C@@H](Cc1ccccc1)C(=O)N[C@@H](CCCNC(=N)N)C(=O)N[C@@H](Cc1c[nH]c2ccccc12)C(=O)N[C@@H](CC(=O)O)C(=O)N[C@@H](CCCNC(=N)N)C(=O)N[C@@H](Cc1ccccc1)C(N)=O [γ-MSH, γ-melanocyte stimulating hormone]
- potency rank among ligands (lowest EC50) (rat MC3-R): most potent ligand and the one having the lowest EC50
- ability to stimulate pigmentation (pigmentation): little or no ability to stimulate pigmentation
- pressor, cardioaccelerator and natriuretic actions [1]: potent pressor, cardioaccelerator and natriuretic actions

Reference: US5994087A, “Mammalian melanocortin receptors and uses” (Oregon Health Sciences University, priority 1995, dated 1999)
